According to patent US7994318B2, “Coumarin derivatives useful as TNFα inhibitors” (Chugai Seiyaku Kabushiki Kaisha, priority 2000, dated 2011):
Read-outs that look alike come from different tables or passages of the source.

Tested on: TNFα
Assay: In vitro assay: TNFα ELISA of supernatants of LPS-stimulated human PBMC
Type: cell-based
Conditions: human PBMC pretreated with drug 60 min, stimulated with LPS (E. coli O55:B5) 100 ng/mL, overnight culture, TNFα in supernatant by ELISA, read-out: 50% Inhibition of TNFα level (IC50)
Method: Enzyme-linked immunosorbent assays (ELISA) for TNFα can be performed in a conventional manner (Blood, 75, 40-47 (1990)). Human PBMC are isolated from heparinized venous blood obtained from healthy volunteers by Ficoll-Hypaque density centrifugation. The cells are cultured in RPMI1640 medium supplemented with 5% heat-inactivated fetal calf serum and antibiotics. PBMC (5×10E5 cells/mL) in 0.2 mL aliquot are pretreated with drugs in DMSO for 60 min at 37° C. in 96 well round-bottomed tissue culture plates. Thereafter, PBMC in the presence or absence of compound are stimulated with 1 mg/mL LPS from E. coli O55:B5 at a final concentration of 100 ng/mL. After overnight culture, the supernatants are harvested and assayed immediately for TNFα levels from each well. The concentration of TNFα in the supernatant is determined by human TNFα ELISA Kit according to the manufacture's directions.
Active compounds are characterized by the concentration of the compound that caused 50% inhibition of TNFα level (IC50).

| IC50 | SMILES | IC50 (Homo sapiens, PBMC) |
| --- | --- | --- |
| – | Cc1c(Cc2ccccc2)c(=O)oc2c(C=O)c(OC(=O)N(C)C)ccc12 [Example 6, dimethyl carbamic acid 2-oxo-2H-3-benzyl-4-methyl-8-formyl-1-benzopyran-7-yl ester] | 12.9 µM |
| 0.25 µM | CCOC(=O)CC(=O)Nc1cccc(Cc2c(C)c3ccc(Oc4nccs4)cc3oc2=O)c1 [Example 22-6] | – |
| – | Cc1c(Cc2ccccc2)c(=O)oc2cc(OC(=O)N(C)C)ccc12 [Example 1, dimethyl carbamic acid 2-oxo-2H-3-benzyl-4-methyl-1-benzopyran-7-yl ester] | 0.36 µM |
| 7.2 µM | Cc1ccc(S(=O)(=O)Nc2cccc(Cc3c(C)c4cc(Cl)c(Oc5ncccn5)cc4oc3=O)c2)cc1 [Example 20-45] | – |
